The values that follow come from US12661343B2, “Compositions containing nicotinamide and vitamin B6 and methods of using such compositions for promoting muscle growth” (SOCIETE DES PRODUITS NESTLE S.A., priority 2020, dated 2026).

SMILES strings stand for the structures.

The subject of the assay is Human primary myoblasts. The assay is described as follows: Myogenic amplification and commitment of muscle stem cells (Pax7/MyoD staining, image quantification). Type of assay: cell-based. The following applies: donors 1 and 2 pooled, dose response, 96 hours, normalized to total cell number, control DMSO 1%; for proportion of MyoD+ cells (differentiating), fold change compared to the control condition: FIG. 1B/2B. The protocol: Human Skeletal Muscle Myoblasts were purchased from Lonza (https://bioscience.lonza.com). These cells were isolated from the upper arm or leg muscle tissue of normal donors and used after the second passage. Several donors were tested to ensure cell viability and purity before selecting the final donors, which are a person (refer thereafter as Donor 1), a person (refer thereafter as Donor 2) and a person (refer thereafter as Donor 3). Human primary myoblasts were seeded in 384 well plates at a density of 1′000 cells per well in skeletal muscle growth medium (SKM-M, AMSbio). For treatment, compounds were directly added to the myoblast cultures 16 hours after initial plating. All cultures were then grown for 96 hours. Cells were stained for Pax7 and MyoD expression using antibodies directed against Pax7 and MyoD and counterstained with Hoechst 33342 to visualize cell nuclei. Pax7+ cells are defined as cells that express Pax7 regardless of MyoD expression. […] Image acquisition was performed using the ImageXpress (Molecular Devices) platform. Custom module analysis based on Multi-Wavelength Cell Scoring of the MetaXpress software was used for quantification. *, **, ***, **** indicates difference from the control, One-way ANOVA, with p<0.05, p<0.01, p<0.001, p<0.0001, respectively. Data are presented as Mean+/−SEM. Human primary myoblasts from different donors (donor 1, donor 2 or donor 3) were seeded in 384 well plates at a density of 1′000 cells per well in skeletal muscle growth medium (SKM-M, AMSbio). For treatment, compounds were directly added to the myoblast cultures 16 hours after initial plating. All cultures were then grown for 96 hours. Cells were stained for Pax7 and MyoD expression using antibodies directed against Pax7 and MyoD and counterstained with Hoechst 33342 to visualize cell nuclei. Pax7+ cells are defined as cells that express Pax7 regardless of MyoD expression. […] Image acquisition was performed using the ImageXpress (Molecular Devices) platform. Custom module analysis based on Multi-Wavelength Cell Scoring of the MetaXpress software was used for quantification. […]

Turning to `NC(=O)c1cccnc1` [Nicotinamide], the “proportion of MyoD+ cells (differentiating), fold change compared to the control condition” value is “increasing the proportion of both amplifying (Pax7+) and differentiating (MyoD+) cells in a dose dependent manner”. Further, the “proportion of Pax7+ cells (amplifying), fold change compared to the control condition” value (FIG. 1A/2A) is “increasing the proportion of both amplifying (Pax7+) and differentiating (MyoD+) cells in a dose dependent manner”.
Take `Cc1ncc(CO)c(CO)c1O` [Pyridoxine]: the “proportion of MyoD+ cells (differentiating), fold change compared to the control condition” value is “increasing the proportion of differentiating (MyoD+) cells in a dose dependent manner”.
